PubChem BioAssay AID1919006 (Molecular Pharmacology Branch, DTP, NCI, 2023)

Test system: 885512-296-R-J2-PDC complex spheroid growth, % test/control
Experiment: Anticancer human tumor 885512-296-R-J2-PDC patient-derived breast carcinoma cell line growth inhibition [AhR]
Details: for IC50: curve of first compound; for viability, T/C: stronger effect = lower value
Procedure, shortened: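 Complex tumor spheroids co-cultured with HUVEC and human MSC stroma; AhR antagonists tested in combination with standard-of-care and investigational agents. Top concentration at or near clinical Cmax (else 10 microM), half-log dilutions; growth expressed as percent test/control.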

[1] = second compound 0.1 µM, first compound 0.0316 µM
[2] = second compound 0.1 µM, first compound 0.1 µM
[3] = second compound 0.1 µM, first compound 0.316 µM
[4] = second compound 0.1 µM, first compound 1 µM
[5] = second compound 0.316 µM, first compound 0.0316 µM
[6] = second compound 0.316 µM, first compound 0.1 µM
[7] = second compound 0.316 µM, first compound 0.316 µM
[8] = second compound 0.316 µM, first compound 1 µM
[9] = second compound 1 µM, first compound 0.0316 µM
[10] = second compound 1 µM, first compound 0.1 µM
[11] = second compound 1 µM, first compound 0.316 µM
[12] = second compound 1 µM, first compound 1 µM
[13] = second compound 3.16 µM, first compound 0.0316 µM
[14] = second compound 3.16 µM, first compound 0.1 µM
[15] = second compound 3.16 µM, first compound 0.316 µM
[16] = second compound 3.16 µM, first compound 1 µM
[17] = second compound 10 µM, first compound 0.0316 µM
[18] = second compound 10 µM, first compound 0.1 µM
[19] = second compound 10 µM, first compound 0.316 µM
[20] = second compound 10 µM, first compound 1 µM
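Note: spheroids exposed to compounds for seven days.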

SMILES	IC50 (second compound 0.1 µM)	IC50 (second compound 0.316 µM)	IC50 (second compound 1 µM)	IC50 (second compound 3.16 µM)	IC50 (second compound 10 µM)	viability, T/C [1]	viability, T/C [2]	viability, T/C [3]	viability, T/C [4]	viability, T/C [5]	viability, T/C [6]	viability, T/C [7]	viability, T/C [8]	viability, T/C [9]	viability, T/C [10]	viability, T/C [11]	viability, T/C [12]	viability, T/C [13]	viability, T/C [14]	viability, T/C [15]	other results
CC1COCCN1c1cc(-c2ccnn2C)c2ccnc(-c3ccn[nH]3)c2n1 (stereo not given) + CC(CO)NC(=O)c1cc(-c2ccc(Cl)cc2)nn(-c2cnn(C)c2)c1=O	0.0431 µM	0.0341 µM	0.0351 µM	0.0291 µM	0.0196 µM	67.8%	10.4%	3.86%	2.47%	54.2%	10.6%	3.26%	2.5%	53.4%	10.7%	2.7%	2.39%	47%	6.94%	2.32%	viability, T/C (second compound 0.1 µM, first compound 0.00316 µM): 112%; viability, T/C (second compound 0.1 µM, first compound 0.01 µM): 87.6%; viability, T/C (second compound 0.316 µM, first compound 0.00316 µM): 96.6%; viability, T/C (second compound 0.316 µM, first compound 0.01 µM): 84.4%; viability, T/C (second compound 1 µM, first compound 0.00316 µM): 93.4%; viability, T/C (second compound 1 µM, first compound 0.01 µM): 91.7%; viability, T/C (second compound 3.16 µM, first compound 0.00316 µM): 91.2%; viability, T/C (second compound 3.16 µM, first compound 0.01 µM): 87.7%; viability, T/C [16]: 2.05%; viability, T/C (second compound 10 µM, first compound 0.00316 µM): 90.5%; viability, T/C (second compound 10 µM, first compound 0.01 µM): 84.2%; viability, T/C [17]: 25.7%; viability, T/C [18]: 4.34%; viability, T/C [19]: 2.45%; viability, T/C [20]: 2.06%
CC1COCCN1c1cc(C2(S(C)(=N)=O)CC2)nc(-c2ccnc3[nH]ccc23)n1 (stereo not given) + CC(CO)NC(=O)c1cc(-c2ccc(Cl)cc2)nn(-c2cnn(C)c2)c1=O	1.68 µM	1.8 µM	1.55 µM	1.14 µM	0.671 µM	102%	96.4%	87%	76%	95.1%	102%	94.2%	84.4%	100%	97%	99%	70.3%	89.4%	83.5%	82.8%	viability, T/C (second compound 0.1 µM, first compound 3.16 µM): 19.1%; viability, T/C (second compound 0.1 µM, first compound 10 µM): 5.46%; viability, T/C (second compound 0.316 µM, first compound 3.16 µM): 17.1%; viability, T/C (second compound 0.316 µM, first compound 10 µM): 4.07%; viability, T/C (second compound 1 µM, first compound 3.16 µM): 16.7%; viability, T/C (second compound 1 µM, first compound 10 µM): 5.36%; viability, T/C [16]: 55.1%; viability, T/C (second compound 3.16 µM, first compound 3.16 µM): 11.1%; viability, T/C (second compound 3.16 µM, first compound 10 µM): 4.04%; viability, T/C [17]: 96.9%; viability, T/C [18]: 95.3%; viability, T/C [19]: 72.6%; viability, T/C [20]: 38.3%; viability, T/C (second compound 10 µM, first compound 3.16 µM): 11.3%; viability, T/C (second compound 10 µM, first compound 10 µM): 4.98%
